Assay results taken from article PMC9102668, “Highly Cytotoxic Osmium(II) Compounds and Their Ruthenium(II) Analogues Targeting Ovarian Carcinoma Cell Lines and Evading Cisplatin Resistance Mechanisms” (International Journal of Molecular Sciences, 2022).

Experiments:
Type in all cases: cell-based
Keratinocytes = assay: IC50 on non-cancerous cell cultures; settings: normal primary short-term cell culture
A2780 = assay: MTT assay (CellTiter96), cytotoxic activity; settings: 48 h incubation
Protocol: (§1) The biological behaviour of all substances was characterized by their cytotoxic activity against a panel of cell lines enabling an understanding of the structure-activity relationship. Cytotoxic activity was determined on ovarian carcinoma cell lines SKOV3 and A2780 as well as their Cisplatin resistant analogues (SKOV3cis and A2780cis) and the lung carcinoma cell line A549. Due to a low solubility in water, dmso is used as a solvent for the preparation of a dilution series in cell culture experiments. The toxic influence of dmso was determined earlier and experiments were carried out with 0.5% dmso in cell culture media and this concentration was used as reference sample in each MTT assay (details: Section 3). […] Resistance factors (RF) were determined for all substances (for IC50 values and RF of β-Hydroxydithiocinnamic acid esters L1–L18, see Tables S2 and S3, Supplementary part). All investigated ruthenium(II) compounds show lower RF values than Cisplatin on ovarian carcinoma cell lines, ranging from 0.2 to 1.5 (Table 3). Whereas the IC50 values on the non-resistant cell lines are in most cases higher than the IC50 of the reference substance, no increase of IC50 values is observed for the resistant cell lines. Contrary, eight ruthenium complexes show lower IC50 values on SKOV3cis than Cisplatin and four compounds on A2780cis. Thus, it can be concluded that these compounds are able to bypass the Cisplatin resistance mechanism in these cell lines pointing to a different mechanism of action.
(§2) Ovarian cancer cell lines were cultured under standard conditions (5% CO2, 37 °C, 90% humidity) in RPMI medium supplemented with 10% FCS, 100 U/mL penicillin and 100 µg/mL streptomycin (Life Technologies, Dreieich, Germany). Cisplatin (Sigma, Taufkirchen, Germany) was freshly dissolved at 1 mg/mL in 0.9% NaCl solution and diluted appropriately. New ruthenium(II) complexes and ligands were dissolved in dmso. Platinum-resistant A2780 and SKOV3 cells were established by repeated rounds of 3-day incubations with increasing amounts of Cisplatin starting with 0.1 µM. The concentration was doubled after 3 incubations, interrupted by recovery phases with normal medium. […] Determinations of IC50 values were carried out using the CellTiter96 non-radioactive proliferation assay (MTT assay, Promega, Mannheim, Germany). After seeding 5000 cells per well in a 96-well plate, cells were allowed to attach for 24 h and were incubated for 48 h with different concentrations of the substances ranging from 0 to 500 µM for Ruthenium and 0 to 1000 µM for ligand tests (0, 1, 10, 50, 100, 500, 1000 µm), for Cisplatin from 0 to 100 µM (0.1, 1, 5, 10, 50, 100 µM). Each measurement was done in triplicate and repeated 3 times. The proportion of viable cells was quantified by the MTT assay and after background subtraction relative values compared to the mean of medium controls were calculated. Non-linear regression analyses applying the Hill slope were run in GraphPad 5.0 software.

SKOV3 = assay: MTT assay (CellTiter96), cytotoxic activity; settings: 48 h incubation
Protocol: as §1, §2

A549 = assay: MTT assay (CellTiter96), cytotoxic activity; settings: lung carcinoma cell line, 48 h incubation
Protocol: as §1, §2

A2780cis = assay: MTT assay (CellTiter96), cytotoxic activity
Protocol: as §1, §2

SKOV3cis = assay: MTT assay (CellTiter96), cytotoxic activity
Protocol: as §1, §2

MCF10A = assay: IC50 on non-cancerous cell cultures; settings: non-cancerous breast epithelial cell line
Fibroblasts = assay: IC50 on non-cancerous cell cultures; settings: normal primary short-term cell culture
[1] = test system: Cisplatin resistant cell lines; assay: Mean IC50 (MTT assay) on Cisplatin resistant cell lines
Protocol: Thus, it can be concluded that the biological activity is mediated by a longer chain (butoxy) at the meta-position, whereas the ortho- and para-positions are more suitable with a shorter chain (ethoxy). To have a further look at the influence of the different ligand systems and substitution patterns, all β-Hydroxydithiocinnamic acid alkyl esters were tested under same conditions as their derived ruthenium(II) complexes (Figure 5B, Supplementary Table S3). […] All ligands are less cytotoxic than Cisplatin itself and therefore the metal(II) center is necessary for the high cytotoxic activity, what is in clear contrast to the literature for O,S-chelating ruthenium(II) or osmium(II) compounds with thiomaltol ligand [48, 71] but confirmed for Ru(II)/Os(II) compounds with N,N-bidentate glycosyl heterocyclic ligands. This is exemplarily shown by the comparison of mean IC50 values for Cisplatin, L14, and Ru14 (Supplementary Figure S8).
as §2

[(η^6-p-cymene)Ru(1-(3-ethoxyphenyl)-3-(methylthio)-3-thioxo-prop-1-en-1-olate-O,S)] [Ru14]
IC50 (Keratinocytes): > 100 µM | IC50 (A2780): 1.9 µM | IC50 (SKOV3): 3.5 µM | IC50 (A549): 2.7 µM | RF A2780 (resistance factor) (A2780cis; A2780cis vs A2780): 1.5 | IC50 (A2780cis; Cisplatin resistant A2780, MTT assay, 48 h incubation): 2.9 µM | IC50 (SKOV3cis; Cisplatin resistant SKOV3, MTT assay, 48 h incubation): 5.1 µM | RF SKOV3 (resistance factor) (SKOV3cis; SKOV3cis vs SKOV3): 1.5 | IC50 (MCF10A): 16.7 µM | IC50 (Fibroblasts): > 100 µM | mean IC50 value on Cisplatin resistant cell lines compared with Cisplatin [1]: lower
